From PubChem BioAssay (NCI)
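Test compounds were applied to cells in 96-well plates for 48 hours at 5 doses. TGI marks complete inhibition of growth.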

Columns and labels:
Experiment in all cases: DTP human tumour cell line panel, 48 h
[1] = test system: 786-0 renal
[2] = test system: A498 renal
[3] = test system: A549 NSCLC
[4] = test system: ACHN renal
[5] = test system: BT-549 breast
[6] = test system: CAKI-1 renal
[7] = test system: COLO 205 colon
[8] = test system: DU-145 prostate
[9] = test system: EKVX NSCLC
[10] = test system: HCC-2998 colon
[11] = test system: HCT-116 colon
[12] = test system: HCT-15 colon
[13] = test system: HL-60(TB) leukemia
[14] = test system: HOP-62 NSCLC
[15] = test system: HOP-92 NSCLC
[16] = test system: HS 578T breast
[17] = test system: HT29 colon
[18] = test system: IGROV1 ovarian
[19] = test system: KM12 colon
[20] = test system: LOX IMVI melanoma
[21] = test system: M14 melanoma
[22] = test system: MALME-3M melanoma
[23] = test system: MCF7 breast
[24] = test system: MDA-MB-231 breast
[25] = test system: MDA-MB-435
[26] = test system: NCI-H226 lung
[27] = test system: NCI-H23 lung
[28] = test system: NCI-H460 lung
[29] = test system: NCI-H522 lung
[30] = test system: NCI/ADR-RES ovarian
[31] = test system: OVCAR-3 ovarian
[32] = test system: OVCAR-4 ovarian
[33] = test system: OVCAR-5 ovarian
[34] = test system: OVCAR-8 ovarian
[35] = test system: PC-3 prostate
[36] = test system: RPMI-8226 leukemia
[37] = test system: SF-268 CNS
[38] = test system: SF-295 CNS
[39] = test system: SF-539 CNS
[40] = test system: SK-MEL-2 melanoma
[41] = test system: SK-MEL-28 melanoma
[42] = test system: SK-MEL-5 melanoma
[43] = test system: SK-OV-3 ovarian
[44] = test system: SN12C renal
[45] = test system: SNB-19 CNS
[46] = test system: SNB-75 CNS
[47] = test system: SR leukemia
[48] = test system: SW-620 colon
[49] = test system: T-47D breast
[50] = test system: TK-10 renal
[51] = test system: U251 CNS
[52] = test system: UACC-257 melanoma
[53] = test system: UACC-62 melanoma
[54] = test system: CCRF-CEM leukemia
[55] = test system: K-562 leukemia
[56] = test system: MOLT-4 leukemia
[57] = test system: UO-31 renal

SMILES: O=c1[nH]c(Nc2ccc(Cl)cc2)nc2nc[nH]c12
- TGI [1]: > 100 µM
- TGI [2]: > 100 µM
- TGI [3]: > 100 µM
- TGI [4]: > 100 µM
- TGI [5]: > 100 µM
- TGI [6]: > 100 µM
- TGI [7]: > 100 µM
- TGI [8]: > 100 µM
- TGI [9]: > 100 µM
- TGI [10]: > 100 µM
- TGI [11]: > 100 µM
- TGI [12]: > 100 µM
- TGI [13]: > 100 µM
- TGI [14]: > 100 µM
- TGI [15]: > 100 µM
- TGI [16]: 92.2 µM
- TGI [17]: > 100 µM
- TGI [18]: > 100 µM
- TGI [19]: > 100 µM
- TGI [20]: > 100 µM
- TGI [21]: > 100 µM
- TGI [22]: > 100 µM
- TGI [23]: > 100 µM
- TGI [24]: > 100 µM
- TGI [25]: > 100 µM
- TGI [26]: > 100 µM
- TGI [27]: > 100 µM
- TGI [28]: > 100 µM
- TGI [29]: > 100 µM
- TGI [30]: > 100 µM
- TGI [31]: > 100 µM
- TGI [32]: > 100 µM
- TGI [33]: > 100 µM
- TGI [34]: > 100 µM
- TGI [35]: > 100 µM
- TGI [36]: > 100 µM
- TGI [37]: > 100 µM
- TGI [38]: > 100 µM
- TGI [39]: > 100 µM
- TGI [40]: > 100 µM
- TGI [41]: > 100 µM
- TGI [42]: > 100 µM
- TGI [43]: > 100 µM
- TGI [44]: > 100 µM
- TGI [45]: > 100 µM
- TGI [46]: > 100 µM
- TGI [47]: > 100 µM
- TGI [48]: > 100 µM
- TGI [49]: > 100 µM
- TGI [50]: > 100 µM
- TGI [51]: > 100 µM
- TGI [52]: > 100 µM
- TGI [53]: > 100 µM

SMILES: O=[N+]([O-])C(=C(Nc1ccccc1)Nc1ccccc1)/C(Cl)=C(\Cl)Br
- TGI [1]: 31.2 µM
- TGI [2]: 35.6 µM
- TGI [3]: 51.1 µM
- TGI [4]: 25 µM
- TGI [5]: 60.5 µM
- TGI [54]: 6.44 µM
- TGI [8]: 31.1 µM
- TGI [9]: 32.1 µM
- TGI [10]: 35 µM
- TGI [11]: 20.1 µM
- TGI [12]: 24.2 µM
- TGI [13]: 4.41 µM
- TGI [14]: 55.1 µM
- TGI [15]: 33.6 µM
- TGI [16]: > 100 µM
- TGI [17]: 29.7 µM
- TGI [55]: 13.2 µM
- TGI [19]: 26.2 µM
- TGI [20]: 15.2 µM
- TGI [21]: 20.1 µM
- TGI [22]: 37.1 µM
- TGI [23]: 33.9 µM
- TGI [24]: 29 µM
- TGI [56]: 13.4 µM
- TGI [26]: 14.4 µM
- TGI [27]: 29.1 µM
- TGI [28]: 54.5 µM
- TGI [29]: 8.72 µM
- TGI [30]: 29.7 µM
- TGI [31]: 19.4 µM
- TGI [32]: 27.3 µM
- TGI [33]: 22.5 µM
- TGI [34]: 37 µM
- TGI [35]: 30.7 µM
- TGI [36]: 18.8 µM
- TGI [37]: 43.1 µM
- TGI [38]: 29.5 µM
- TGI [39]: 46 µM
- TGI [40]: 38.3 µM
- TGI [41]: 29.9 µM
- TGI [44]: 26.6 µM
- TGI [46]: 28.4 µM
- TGI [47]: 22.6 µM
- TGI [48]: 18.8 µM
- TGI [49]: 44.8 µM
- TGI [51]: 28.2 µM
- TGI [52]: 27.8 µM
- TGI [57]: 21.7 µM
